Reference: PubChem BioAssay AID1963430 (Molecular Pharmacology Branch, DTP, NCI, 2024)
Several values for one entry are separate records, joined by “and”; a condition that tells them apart may be missing. Identical values can stand only once. Each block holds one compound with its values, some of them ahead of it.

Tested on: 521955-158-R2-J5-PDC complex spheroid growth, % test/control
Assay: Anticancer human tumor 521955-158-R2-J5-PDC patient-derived pancreatic carcinoma cell line growth inhibition [Asc]
Details: for viability, T/C: stronger effect = lower value
In short: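 Tumor cells were grown as complex spheroids with human endothelial cells (HUVEC) and human mesenchymal stem cells as stroma. Agents were tested alone and in combination, in half-log steps down from the clinical Cmax, or from 10 microM where Cmax was unknown.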

[1] = curve of first compound, second compound 0.01 µM
[2] = curve of first compound, second compound 0.0316 µM
[3] = curve of first compound, second compound 0.1 µM
[4] = curve of first compound, second compound 0.316 µM
[5] = curve of first compound, second compound 1 µM
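Also: spheroids exposed to agents for 7 days before readout.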
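For viability, T/C in this document: 100% = DMSO vehicle control viability.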

IC50 [1]: > 3 µM | IC50 [2]: > 3 µM | IC50 [3]: > 3 µM | IC50 [4]: > 3 µM | IC50 [5]: > 3 µM
Compound: CCN1C(C(=O)NC23CCC(C(=O)O)(CC2)CC3)C(c2cccc(Cl)c2F)C2(C(=O)Nc3cc(Cl)ccc32)C12CCCCC2 (configuration not stated) + CNC(C)C(=O)NC1CN(S(=O)(=O)c2cccc(S(=O)(=O)N3CCC4CCC(C(=O)NC(c5ccccc5)c5ccccc5)N4C(=O)C(NC(=O)C(C)NC)C3)c2)CCC2CCC(C(=O)NC(c3ccccc3)c3ccccc3)N2C1=O
viability, T/C (second compound 0.01 µM, first compound 0.00949 µM): 107% | viability, T/C (second compound 0.01 µM, first compound 0.03 µM): 112% | viability, T/C (second compound 0.01 µM, first compound 0.0949 µM): 90.5% | viability, T/C (second compound 0.01 µM, first compound 0.3 µM): 91.9% | viability, T/C (second compound 0.01 µM, first compound 0.949 µM): 112% | viability, T/C (second compound 0.01 µM, first compound 3 µM): 116% | viability, T/C (second compound 0.0316 µM, first compound 0.00949 µM): 119% | viability, T/C (second compound 0.0316 µM, first compound 0.03 µM): 114% | viability, T/C (second compound 0.0316 µM, first compound 0.0949 µM): 100% | viability, T/C (second compound 0.0316 µM, first compound 0.3 µM): 114% | viability, T/C (second compound 0.0316 µM, first compound 0.949 µM): 97.1% | viability, T/C (second compound 0.0316 µM, first compound 3 µM): 97% | viability, T/C (second compound 0.1 µM, first compound 0.00949 µM): 91.2% | viability, T/C (second compound 0.1 µM, first compound 0.03 µM): 116% | viability, T/C (second compound 0.1 µM, first compound 0.0949 µM): 97.2% | viability, T/C (second compound 0.1 µM, first compound 0.3 µM): 101% | viability, T/C (second compound 0.1 µM, first compound 0.949 µM): 114% | viability, T/C (second compound 0.1 µM, first compound 3 µM): 118% | viability, T/C (second compound 0.316 µM, first compound 0.00949 µM): 94.9% | viability, T/C (second compound 0.316 µM, first compound 0.03 µM): 106% | viability, T/C (second compound 0.316 µM, first compound 0.0949 µM): 106% | viability, T/C (second compound 0.316 µM, first compound 0.3 µM): 98.6% | viability, T/C (second compound 0.316 µM, first compound 0.949 µM): 96.1% | viability, T/C (second compound 0.316 µM, first compound 3 µM): 119% | viability, T/C (second compound 1 µM, first compound 0.00949 µM): 83.3% | viability, T/C (second compound 1 µM, first compound 0.03 µM): 108% | viability, T/C (second compound 1 µM, first compound 0.0949 µM): 115% | viability, T/C (second compound 1 µM, first compound 0.3 µM): 103% | viability, T/C (second compound 1 µM, first compound 0.949 µM): 105% | viability, T/C (second compound 1 µM, first compound 3 µM): 108%

IC50 (curve of compound): > 0.1 µM
Compound: NC1CCC(NC2CC2c2ccccc2)CC1 (configuration not stated)
viability, T/C (compound 0.000316 µM): 63.1% and 63.5% and 88.5% | viability, T/C (compound 0.001 µM): 57% and 64.8% and 83.1% | viability, T/C (compound 0.00316 µM): 52.8% and 60% and 75.8% | viability, T/C (compound 0.01 µM): 68.5% and 49.6% and 95% | viability, T/C (compound 0.0316 µM): 58.5% and 56.5% and 90.8% | viability, T/C (compound 0.1 µM): 60% and 61.9% and 74%

IC50 [1]: 5.38 µM | IC50 [2]: 5.41 µM | IC50 [3]: 5.72 µM | IC50 [4]: 5.6 µM | IC50 [5]: 5.44 µM
Compound: C=C(F)C(=O)N1CCN(c2nc(OCC3CCCN3C)nc3c2CCN(c2cccc4cccc(Cl)c24)C3)CC1CC#N (configuration not stated) + CNC(C)C(=O)NC1CN(S(=O)(=O)c2cccc(S(=O)(=O)N3CCC4CCC(C(=O)NC(c5ccccc5)c5ccccc5)N4C(=O)C(NC(=O)C(C)NC)C3)c2)CCC2CCC(C(=O)NC(c3ccccc3)c3ccccc3)N2C1=O
viability, T/C (second compound 0.01 µM, first compound 0.0316 µM): 87.1% | viability, T/C (second compound 0.01 µM, first compound 0.1 µM): 93.1% | viability, T/C (second compound 0.01 µM, first compound 0.316 µM): 100% | viability, T/C (second compound 0.01 µM, first compound 1 µM): 98.4% | viability, T/C (second compound 0.01 µM, first compound 3.16 µM): 92.6% | viability, T/C (second compound 0.01 µM, first compound 10 µM): 0.23% | viability, T/C (second compound 0.0316 µM, first compound 0.0316 µM): 100% | viability, T/C (second compound 0.0316 µM, first compound 0.1 µM): 95.6% | viability, T/C (second compound 0.0316 µM, first compound 0.316 µM): 81.3% | viability, T/C (second compound 0.0316 µM, first compound 1 µM): 90.6% | viability, T/C (second compound 0.0316 µM, first compound 3.16 µM): 99.7% | viability, T/C (second compound 0.0316 µM, first compound 10 µM): 0.23% | viability, T/C (second compound 0.1 µM, first compound 0.0316 µM): 111% | viability, T/C (second compound 0.1 µM, first compound 0.1 µM): 106% | viability, T/C (second compound 0.1 µM, first compound 0.316 µM): 79.8% | viability, T/C (second compound 0.1 µM, first compound 1 µM): 93.4% | viability, T/C (second compound 0.1 µM, first compound 3.16 µM): 98.2% | viability, T/C (second compound 0.1 µM, first compound 10 µM): 5.12% | viability, T/C (second compound 0.316 µM, first compound 0.0316 µM): 119% | viability, T/C (second compound 0.316 µM, first compound 0.1 µM): 103% | viability, T/C (second compound 0.316 µM, first compound 0.316 µM): 84% | viability, T/C (second compound 0.316 µM, first compound 1 µM): 91.1% | viability, T/C (second compound 0.316 µM, first compound 3.16 µM): 99% | viability, T/C (second compound 0.316 µM, first compound 10 µM): 0.31% | viability, T/C (second compound 1 µM, first compound 0.0316 µM): 85.9% | viability, T/C (second compound 1 µM, first compound 0.1 µM): 102% | viability, T/C (second compound 1 µM, first compound 0.316 µM): 92% | viability, T/C (second compound 1 µM, first compound 1 µM): 94.7% | viability, T/C (second compound 1 µM, first compound 3.16 µM): 93% | viability, T/C (second compound 1 µM, first compound 10 µM): 1.89%

IC50 (curve of compound): > 0.1 µM
Compound: Cn1ncnc1[C@H]1c2n[nH]c(=O)c3cc(F)cc(c23)N[C@@H]1c1ccc(F)cc1
viability, T/C (compound 0.000316 µM): 106% and 99.6% and 79.6% | viability, T/C (compound 0.001 µM): 81.4% and 87.9% and 79.3% | viability, T/C (compound 0.00316 µM): 68.4% and 93.3% and 73.6% | viability, T/C (compound 0.01 µM): 76.5% and 83.7% and 68.9% | viability, T/C (compound 0.0316 µM): 81.5% and 76.8% and 63.5% | viability, T/C (compound 0.1 µM): 57.7% and 68.6% and 70.2%

IC50 (compound alone, run of 09/27/2022): > 3 µM | IC50 (curve of compound): > 3 µM
Compound: CCN1C(C(=O)NC23CCC(C(=O)O)(CC2)CC3)C(c2cccc(Cl)c2F)C2(C(=O)Nc3cc(Cl)ccc32)C12CCCCC2 (configuration not stated)
viability, T/C (compound 0.00949 µM): 94.9% and 87.6%
